In brackets after ≈: the same amount, converted by molar mass.

For one experiment, the system named is 30 strains of coliform bacilli collected from the living body of humans. Nature of the experiment: MIC50/MIC70 against 30 strains of coliform bacilli. Type of experiment: cell-based. As to conditions: 70% of the 30 strains. On the procedure:
The MIC of ampicillin as combined with the present compound (10 μg/ml) was measured against the same bacteria. In the method, the bacteria cultivated in Mueller Hinton Broth (product of DIFCO) and diluted to 10^7 CFU/ml were inoculated into the same medium containing ampicillin and the present compound in a specific concentration, and incubated at 37° C. for 20 hours. […] The bacteria as used in the test were those capable of producing β-lactamase, among which the bacteria marked * in the table are those collected from the living body of human hosts and the others are a stock culture.
(2) Effects by antibiotics as combined with the present compound
The compounds of the present invention, ampicillin, mecillinam, piperacillin and cephalexin, each singly used, were also tested for minimal inhibitory concentration against 30 strains of coliform bacilli collected from the living body of humans. The MIC of each antibiotic as combined with the present compound (10 μg/ml) was likewise measured. Table 3 to 6 indicate the results in which MIC50 and MIC70 indicate the minimal inhibitory concentration for inhibiting the growth of 50% and 70% respectively of the strains. The MICs of the present compounds singly used were all more than 25 μg/ml.
Turning to `CC1(C)S[C@@H]2[C@H](NC(=O)[C@H](N)c3ccccc3)C(=O)N2[C@H]1C(=O)O` [Ampicillin, ampicillin, reference compound], the “MIC70, ampicillin singly used” value is 400 µg/mL (≈ 1140 µM).

Still in this experiment, the particulars now being: 70% of the 30 strains; present compound 10 μg/ml.
In the case of `CCOC(=O)c1cn(C[C@@]2(C)[C@H](C(=O)O)N3C(=O)C[C@H]3S2(=O)=O)nn1` [Compound 7, sodium 2β-(4-ethoxycarbonyl-1,2,3-triazol-1-yl)methyl-2α-methylpenam-3α-carboxylate-1,1-dioxide], the “MIC70 of ampicillin combined with present compound” value (“MIC70 of ampicillin combined” for short) amounted to 50 µg/mL, the “MIC70 of cephalexin combined with present compound” value (shortened to “MIC70 of cephalexin combined”) was determined as 100 µg/mL, the “MIC70 of mecillinam combined with present compound” value (shortened to “MIC70 of mecillinam combined”) was determined as 0.39 µg/mL and the “MIC70 of piperacillin combined with present compound” value (“MIC70 of piperacillin combined” below) came to 6.25 µg/mL.

Take `CCOC(=O)c1cnnn1C[C@@]1(C)[C@H](C(=O)O)N2C(=O)C[C@H]2S1(=O)=O` [Compound 11, sodium 2β-(5-ethoxycarbonyl-1,2,3-triazol-1-yl)methyl-2α-methylpenam-3α-carboxylate-1,1-dioxide]: the “MIC70 of ampicillin combined” value turned out to be 100 µg/mL, the “MIC70 of cephalexin combined” value came out at 100 µg/mL, the “MIC70 of mecillinam combined” value came to 0.39 µg/mL and the “MIC70 of piperacillin combined” value came to 25 µg/mL.

As to `C[C@]1(Cn2cc(C(=O)O)nn2)[C@H](C(=O)O)N2C(=O)C[C@H]2S1(=O)=O` [Compound 16, dipotassium 2β-(4-carboxy-1,2,3-triazol-1-yl)methyl-2α-methylpenam-3α-carboxylate-1,1-dioxide], the “MIC70 of ampicillin combined” value came to 6.25 µg/mL, the “MIC70 of cephalexin combined” value is 25 µg/mL, the “MIC70 of mecillinam combined” value is 0.1 µg/mL and the “MIC70 of piperacillin combined” value worked out at 3.13 µg/mL.

As to `C[C@]1(Cn2nncc2C(=O)O)[C@H](C(=O)O)N2C(=O)C[C@H]2S1(=O)=O` [Compound 17, dipotassium 2β-(5-carboxy-1,2,3-triazol-1-yl)methyl-2α-methylpenam-3α-carboxylate-1,1-dioxide], the “MIC70 of ampicillin combined” value came out at 100 µg/mL, the “MIC70 of mecillinam combined” value stood at 0.39 µg/mL and the “MIC70 of piperacillin combined” value was 50 µg/mL.

Turning to `C[C@]1(Cn2ccnn2)[C@H](C(=O)O)N2C(=O)C[C@H]2S1(=O)=O` [Compound 22, sodium 2α-methyl-2β-(1,2,3-triazol-1-yl)methylpenam-3α-carboxylate-1,1-dioxide], the “MIC70 of ampicillin combined” value was found to be 6.25 µg/mL, the “MIC70 of cephalexin combined” value stood at 50 µg/mL, the “MIC70 of mecillinam combined” value turned out to be 0.2 µg/mL and the “MIC70 of piperacillin combined” value came to 1.56 µg/mL.

For the origin of these results see patent US4562073A, “Penicillin derivatives” (Taiho Pharmaceutical Company Limited, priority 1982, dated 1985).
